Data published in patent US5849735A, “Tricyclic benzazepine vasopressin antagonists” (American Cyanamid Company, priority 1995, dated 1998).

Test system: vasopressin V2
Assay: Vasopressin Antidiuretic (V2) Response in Conscious Rats with Free Access to Water Drinking Before But Not During the Experiment
Type: in vivo, rat (Sprague-Dawley)
Conditions: N=2
Excerpt: Vasopressin Antidiuretic (V2) Response in Conscious Rats with Free Access to Water Drinking Before But Not During the Experiment Male or female normotensive Sprague-Dawley rats (Charles River Laboratories, Inc., Kingston, N.Y.) of 400-450 g of body weight were supplied with Laboratory Rodent Feed #5001 (PMI Feeds, Inc., Richmond, Ind.) and water ad libitum. On the day of test, rats were placed individually into metabolic cages equipped with stainless steel screens (to separate the feces from the urine) and funnels for collection of urine. Compounds, vehicle, or reference agent was given at various oral doses. During the test, rats were provided with no water or food. After dosing, urine was collected in graduated cylinders for four hours. Urine volume was measured. Urinary osmolality was determined using a Fiske One-Ten Osmometer (Fiske Associates, Norwood, Mass. 02062). An aliquot of each urine collection was analyzed for Na^+,K^+ and Cl^- using ion specific electrodes a in Beckman E3 (Electrolyte 3) analyzer. The vehicle used for testing compounds was 20% dimethylsulfoxide (DMSO) in 2.5% preboiled starch. Compounds were dissolved in DMSO and then diluted in 2.5% corn starch (final concentration of DMSO was 20%). All rats were orally dosed with this mixture at […], by gavage.

| SMILES | Osmolality (oral 10 mg/kg) [MOsm/kg] | Urine Volume (oral 10 mg/kg) [ml/4 hrs] | Osmolality (oral 1 mg/kg) [MOsm/kg] | Urine Volume (oral 1 mg/kg) [ml/4 hrs] | Osmolality (oral 3 mg/kg) [MOsm/kg] | Urine Volume (oral 3 mg/kg) [ml/4 hrs] |
| --- | --- | --- | --- | --- | --- | --- |
| O=C(Nc1ccc(C(=O)N2Cc3ccccc3Oc3ccccc32)c(Cl)c1)c1ccccc1-c1ccccc1 [Example 47, N-[4-(Dibenz[b,f][1,4]oxazepin-10(11H)-ylcarbonyl)-3-chlorophenyl][1,1'biphenyl]-2-carboxamide] | 394 | 22.0 | – | – | – | – |
| O=C(Nc1ccc(C(=O)N2Cc3cccnc3Oc3ccccc32)cn1)c1ccccc1-c1ccccc1 [Example 66, N-[5-(Pyrido[2,3-b][1,5]benzoxazepin-6(5H)-ylcarbonyl)-2-pyridinyl][1,1'biphenyl]-2-carboxamide] | 442 | 17.0 | – | – | – | – |
| O=C(Nc1ccc(C(=O)N2Cc3cccnc3Oc3ccccc32)c(Cl)c1)c1ccccc1-c1ccccc1 [Example 67, N-[4-(Pyrido[2,3-b][1,5]benzoxazepin-6(5H)-ylcarbonyl)-3-chlorophenyl][1,1'-biphenyl]-2-carboxamide] | 402 | 21.5 | – | – | – | – |
| O=C(Nc1ccc(C(=O)N2Cc3cccnc3Nc3ccccc32)cc1)c1ccccc1-c1ccccc1 [Example 133, N-[4-(6,11-Dihydropyrido[2,3-b][1,5]benzodiazepin-6(5H)-ylcarbonyl)-phenyl][1.1'-biphenyl]-2-carboxamide] | 234 | 27.5 | – | – | – | – |
| O=C(Nc1ccc(C(=O)N2Cc3cccnc3Nc3ccccc32)c(Cl)c1)c1ccccc1-c1ccccc1 [Example 134, N-[4-(6,11-Dihydropyrido[2,3-b][1,5]benzodiazepin-6(5H)-ylcarbonyl)-3-chlorophenyl][1,1'-biphenyl]-2-carboxamide] | 333 | 40.5 | 596 | 18.2 | 396 | 28 |
| Cl.O=C(Nc1ccc(C(=O)N2Cc3cccnc3Nc3ccccc32)cc1)c1ccccc1-c1ccccc1 [Example 135, N-[4-(6,11-Dihydropyrido[2,3-b][1,5]benzodiazepin-6(5H)-ylcarbonyl)-phenyl][1,1'-biphenyl]-2-carboxamide, hydrochloride] | 284 | 39.5 | 526 | 19.5 | 391 | 26.8 |
| O=C(Nc1ccc(C(=O)N2Cc3cccnc3Nc3ccccc32)cn1)c1ccccc1-c1ccccc1 [Example 176, N-[5-(6,11-Dihydropyrido[2,3-b][1,5]benzodiazepin-6(5H)-ylcarbonyl)-2-pyridinyl][1,1'-biphenyl]-2-carboxamide] | 567 | 12.8 | – | – | – | – |
| O=C(Nc1ccc(C(=O)N2Cc3ccccc3Nc3ccccc32)c(Cl)c1)c1ccccc1-c1ccccc1 [Example 218, N-[4-[(5,11-Dihydro-10H-dibenz[b,e][1,4]diazepin-10-yl)carbonyl]-3-chlorophenyl][1,1'-biphenyl]-2-carboxamide] | 222 | 34 | – | – | – | – |
| O=C(Nc1ccc(C(=O)N2Cc3ccccc3Nc3ccccc32)cn1)c1ccccc1-c1ccccc1 [Example 257, N-[5-[(5,11-Dihydro-10H-dibenz[b,e][1,4]diazepin-10-yl)carbonyl]-2-pyridinyl][1,1'-biphenyl]-2-carboxamide] | 317 | 22.5 | – | – | – | – |
| O=C(Nc1ccc(C(=O)N2Cc3ccccc3Cc3ccccc32)cc1)c1ccccc1-c1ccccc1 [Example 301, N-[4-[(6,11-Dihydro-5H-dibenz[b,e]azepin-5-yl)carbonyl]-phenyl][1,1'-biphenyl]-2-carboxamide] | 363 | 41.5 | – | – | – | – |
| O=C(Nc1ccc(C(=O)N2Cc3ccccc3Cc3ccccc32)c(Cl)c1)c1ccccc1-c1ccccc1 [Example 302, N-[4-[(6,11-Dihydro-5H-dibenz[b,e]azepin-5-yl)carbonyl]-3-chlorophenyl][1,1'-biphenyl]-2-carboxamide] | 356 | 40 | – | – | – | – |
| Cc1ccc(F)cc1C(=O)Nc1ccc(C(=O)N2Cc3ccccc3Nc3ncccc32)cn1 [Example 352, N-[5-[(6,11-Dihydro-5H-pyrido[2,3-b][1,4]benzodiazepin-5-yl)carbonyl]-2-pyridinyl]-5-fluoro-2-methylbenzamide] | 779 | 9.3 | – | – | – | – |
| O=C(Nc1ccc(C(=O)N2CCc3cn[nH]c3-c3ccccc32)cc1)c1ccccc1-c1ccccc1 [Example 396] | 238 | 21.8 | – | – | – | – |
| O=C(Nc1ccc(C(=O)N2CCc3cn[nH]c3-c3ccccc32)c(Cl)c1)c1ccccc1-c1ccccc1 [Example 397] | 288 | 29.8 | – | – | – | – |
| O=C(Nc1ccc(C(=O)N2CCc3cn[nH]c3-c3ccccc32)cn1)c1ccccc1-c1ccccc1 [Example 398, N-[5-[(4,5-Dihydropyrazolo[4,3-d][1]benzazepin-6(1H)-yl)carbonyl]-2-pyridinyl][1,1'-biphenyl]-2-carboxamide] | 316 | 20.5 | – | – | – | – |
| Cc1ccc(F)cc1C(=O)Nc1ccc(C(=O)N2CCc3cn[nH]c3-c3ccccc32)cn1 [Example 399, N-[5-[(4,5-Dihydropyrazolo[4,3-d][1]benzazepin-6(1H)-yl)carbonyl]-2-pyridinyl]-5-fluoro-2-methylbenzamide] | 404 | 17.0 | – | – | – | – |
| Cc1ccc(F)cc1C(=O)Nc1ccc(C(=O)N2Cc3cscc3Nc3ccccc32)cn1 [Example 400] | 270 | 24.8 | – | – | – | – |
| O=C(c1ccc(-c2cccs2)cc1)N1Cc2ccccc2Nc2ccccc21 [Example 404, 5,11-Dihydro-10-[4-(2-thienyl)benzoyl]-10H-dibenz[b,e][1,4]diazepine] | 909 | 6 | – | – | – | – |
